molecular target: Egl nine homolog 1 (Homo sapiens, UniProt Q9GZT9); test: Inhibition of EGLN1
Sequence (Q9GZT9 whole entry): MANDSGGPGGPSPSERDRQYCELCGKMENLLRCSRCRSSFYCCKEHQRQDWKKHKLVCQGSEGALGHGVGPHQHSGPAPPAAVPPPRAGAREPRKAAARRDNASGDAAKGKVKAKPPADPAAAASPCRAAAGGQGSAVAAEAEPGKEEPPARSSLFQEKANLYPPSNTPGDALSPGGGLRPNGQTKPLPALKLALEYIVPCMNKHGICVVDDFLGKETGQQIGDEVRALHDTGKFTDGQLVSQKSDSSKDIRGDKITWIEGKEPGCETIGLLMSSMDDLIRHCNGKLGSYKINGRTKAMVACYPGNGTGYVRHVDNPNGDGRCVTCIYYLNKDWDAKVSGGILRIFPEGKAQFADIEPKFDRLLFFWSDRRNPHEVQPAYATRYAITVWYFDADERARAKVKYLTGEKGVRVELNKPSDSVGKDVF

IC50, > 100 µM:
O=C(O)CNC(=O)c1ccccn1
O=C(O)CNC(=O)c1ccc(-c2cccc(Cl)c2)cn1
O=C(O)CNC(=O)c1cc(-c2ccc(Cl)cc2)ccn1

From ChEMBL document CHEMBL1138875, “Design and synthesis of substituted pyridine derivatives as HIF-1alpha prolyl hydroxylase inhibitors” (Bioorg Med Chem Lett, 2006)
